Tests used:
[1] = test system: voltage gated Na+ channel in MAT-LyLu rat prostatic cancer cell line; test: current recordings of VGSC functional expression in MAT-LyLu cells after 24 h incubation; assay type: cell-based
Protocol: FIG. 9. (A) Current recordings from the MAT-LyLu rat prostatic cancer cell line elicited by depolarising the membrane from a holding potential of −100 mV to 0 mV following 24 h incubation in 0% FBS, 100 ng/ml EGF and 1 μM AG1478. […] (B) Histograms showing mean peak Na^+ current density ± standard error following 24 h incubation in 0% FBS, 100 ng/ml EGF, 1 μM AG1478 and EGF receptor antibody (1 μg/ml). Statistical significance is indicated as **=p<0.01 and ***=p<0.001, respectively.
Epidermal growth factor (EGF) upregulates VGSC functional expression. […] This effect is blocked by co-application of EGF receptor kinase inhibitor (AG1478; Calbiochem, San Diego, Calif., USA). Application of EGF receptor antibody (Oncogene, Cambridge, Mass., USA) also reduces the basal VGSC current implying that the phenomenon occurs endogenously.

MAT-LyLu and PC-3 cells = settings: cited from earlier work
MAT-LyLu cells = settings: cited from earlier work
[2] = test system: PN1 expression in PC12 cells; settings: cited from earlier work

Compound: Epidermal growth factor [EGF]
- VGSC functional expression (peak Na+ current density) ([1]; 24 h incubation, 100 ng/ml EGF): upregulates

Compound: COc1cc2ncnc(Nc3cccc(Cl)c3)c2cc1OC [AG1478]
- effect on EGF potentiation of functional VGSC expression ([1]; co-application with EGF, 1 μM AG1478, 24 h): blocked

Compound: NC1=N[C@H](O)[C@H]2[C@H]3O[C@]4(O)O[C@@H]([C@@H](O)[C@@]2(N1)[C@@H]4O)[C@]3(O)CO [TTX, tetrodotoxin]
- cells' invasion in vitro (MAT-LyLu and PC-3 cells): significantly reduced
- reduction of the cells' invasive potential (MAT-LyLu and PC-3 cells): ~30%
- effect on cell morphology (MAT-LyLu cells): retract their processes and become compact

Compound: nerve growth factor [NGF]
- PN1 expression [2]: upregulates
